Experimental data published in paper PMC9064246 (RSC Advances, 2019).

Molecular target: T1, Lactobacillus reuteri 121 inulosucrase (LrInu; InuΔ699His) (Limosilactobacillus reuteri, UniProt Q8GP32)
T1 sequence (Q8GP32 37-699 limits assumed): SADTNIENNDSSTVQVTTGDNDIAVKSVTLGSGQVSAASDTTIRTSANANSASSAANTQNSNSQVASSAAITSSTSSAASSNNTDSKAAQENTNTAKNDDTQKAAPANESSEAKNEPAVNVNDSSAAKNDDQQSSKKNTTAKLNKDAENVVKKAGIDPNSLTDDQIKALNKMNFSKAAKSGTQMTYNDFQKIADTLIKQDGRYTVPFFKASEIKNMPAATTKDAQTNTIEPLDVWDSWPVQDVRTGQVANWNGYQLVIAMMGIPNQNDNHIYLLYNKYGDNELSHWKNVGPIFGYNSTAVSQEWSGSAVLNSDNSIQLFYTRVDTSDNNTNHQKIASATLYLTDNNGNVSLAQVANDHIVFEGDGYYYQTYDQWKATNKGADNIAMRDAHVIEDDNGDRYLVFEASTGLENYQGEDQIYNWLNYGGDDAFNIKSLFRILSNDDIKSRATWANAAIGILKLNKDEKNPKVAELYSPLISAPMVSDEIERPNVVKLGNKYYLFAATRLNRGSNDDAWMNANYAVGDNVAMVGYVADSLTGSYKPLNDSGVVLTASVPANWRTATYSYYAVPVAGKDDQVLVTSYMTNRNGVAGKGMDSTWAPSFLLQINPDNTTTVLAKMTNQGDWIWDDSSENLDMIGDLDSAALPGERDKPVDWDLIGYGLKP
Test: FOS synthesis, TLC / HPLC / MALDI-TOF MS
Format: biochemical
Conditions: 0.5 M sucrose, 5 U/mL enzyme, 50 mM acetate pH 5.5, 30 °C, 24 h

OC[C@H]1O[C@@](CO)(O[C@H]2O[C@H](CO)[C@@H](O)[C@H](O)[C@H]2O)[C@@H](O)[C@@H]1O [sucrose]
FOS synthesis, TLC / HPLC / MALDI-TOF MS: transglycosylation products of R483A, R483F, R483Y and R483W
